Experimental data from US10670605B2, “Cysteine reactive probes and uses thereof” (The Scripps Research Institute, priority 2015, dated 2020).

Columns and labels:
Assay in all cases: Competitive isoTOP-ABPP, cell lysates
Type in all cases: binding
[1] = target: STAT3 C259 (P40763) (Homo sapiens, UniProt P40763)
[2] = target: T1, PDIA6 C55 (Q15084) (Homo sapiens, UniProt Q15084)
T1 sequence (Q15084 20-440): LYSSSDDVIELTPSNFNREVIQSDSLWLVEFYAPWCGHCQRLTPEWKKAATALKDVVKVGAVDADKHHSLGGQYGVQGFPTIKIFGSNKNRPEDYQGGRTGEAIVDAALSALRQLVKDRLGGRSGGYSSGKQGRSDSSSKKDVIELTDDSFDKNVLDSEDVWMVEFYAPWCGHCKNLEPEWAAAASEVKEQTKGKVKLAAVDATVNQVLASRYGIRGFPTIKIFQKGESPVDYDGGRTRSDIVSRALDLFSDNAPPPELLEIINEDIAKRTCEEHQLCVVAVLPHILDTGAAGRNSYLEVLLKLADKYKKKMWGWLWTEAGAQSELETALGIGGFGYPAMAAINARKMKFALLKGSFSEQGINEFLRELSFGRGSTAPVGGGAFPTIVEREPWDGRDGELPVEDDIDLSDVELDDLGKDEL

[3] = target: T2, IDH2 C308 (P48735) (Homo sapiens, UniProt P48735)
T2 sequence (P48735 40-452): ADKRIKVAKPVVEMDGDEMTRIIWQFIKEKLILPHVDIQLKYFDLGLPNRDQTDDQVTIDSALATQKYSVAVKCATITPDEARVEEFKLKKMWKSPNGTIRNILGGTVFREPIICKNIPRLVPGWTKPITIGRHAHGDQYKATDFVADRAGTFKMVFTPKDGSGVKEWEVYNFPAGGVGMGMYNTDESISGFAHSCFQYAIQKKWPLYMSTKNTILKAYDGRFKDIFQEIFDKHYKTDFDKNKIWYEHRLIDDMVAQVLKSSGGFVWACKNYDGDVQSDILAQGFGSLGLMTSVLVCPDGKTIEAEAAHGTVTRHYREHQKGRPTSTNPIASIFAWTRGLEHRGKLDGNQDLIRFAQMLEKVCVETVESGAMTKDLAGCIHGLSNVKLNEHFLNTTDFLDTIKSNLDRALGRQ

[4] = target: IDH1 C269 (O75874) (Homo sapiens, UniProt O75874)
[5] = target: XPO1 C528 (O14980) (Homo sapiens, UniProt O14980)
[6] = target: T3, AIP C122 (O00170) (Homo sapiens, UniProt O00170); conditions: for isoTOP-ABPP reactivity ratio, O00170_C122: 500 μm
T3 sequence (O00170 1-330): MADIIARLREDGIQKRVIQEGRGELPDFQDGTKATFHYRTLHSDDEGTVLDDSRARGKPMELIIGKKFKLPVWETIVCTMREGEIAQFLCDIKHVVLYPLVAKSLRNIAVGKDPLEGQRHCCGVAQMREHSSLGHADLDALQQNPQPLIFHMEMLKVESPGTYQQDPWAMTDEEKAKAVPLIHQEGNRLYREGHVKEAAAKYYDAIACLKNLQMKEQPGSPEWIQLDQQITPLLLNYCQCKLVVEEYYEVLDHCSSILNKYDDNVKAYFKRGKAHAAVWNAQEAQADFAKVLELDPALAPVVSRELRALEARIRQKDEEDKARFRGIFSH

Sequence of IDH1 C269 (O75874) (O75874 whole entry): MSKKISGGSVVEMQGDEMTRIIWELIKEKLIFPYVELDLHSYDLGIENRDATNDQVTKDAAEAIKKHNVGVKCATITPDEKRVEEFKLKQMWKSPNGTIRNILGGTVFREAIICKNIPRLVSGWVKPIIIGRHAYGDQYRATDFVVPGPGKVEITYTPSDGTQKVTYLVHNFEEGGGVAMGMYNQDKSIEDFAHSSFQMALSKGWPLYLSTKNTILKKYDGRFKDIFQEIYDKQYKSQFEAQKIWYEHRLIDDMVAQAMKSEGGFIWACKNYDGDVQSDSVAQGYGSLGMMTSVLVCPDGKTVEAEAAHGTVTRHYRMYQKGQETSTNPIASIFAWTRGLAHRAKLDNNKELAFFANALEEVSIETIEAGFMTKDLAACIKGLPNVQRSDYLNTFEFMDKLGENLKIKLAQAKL
Sequence of STAT3 C259 (P40763) (P40763 whole entry): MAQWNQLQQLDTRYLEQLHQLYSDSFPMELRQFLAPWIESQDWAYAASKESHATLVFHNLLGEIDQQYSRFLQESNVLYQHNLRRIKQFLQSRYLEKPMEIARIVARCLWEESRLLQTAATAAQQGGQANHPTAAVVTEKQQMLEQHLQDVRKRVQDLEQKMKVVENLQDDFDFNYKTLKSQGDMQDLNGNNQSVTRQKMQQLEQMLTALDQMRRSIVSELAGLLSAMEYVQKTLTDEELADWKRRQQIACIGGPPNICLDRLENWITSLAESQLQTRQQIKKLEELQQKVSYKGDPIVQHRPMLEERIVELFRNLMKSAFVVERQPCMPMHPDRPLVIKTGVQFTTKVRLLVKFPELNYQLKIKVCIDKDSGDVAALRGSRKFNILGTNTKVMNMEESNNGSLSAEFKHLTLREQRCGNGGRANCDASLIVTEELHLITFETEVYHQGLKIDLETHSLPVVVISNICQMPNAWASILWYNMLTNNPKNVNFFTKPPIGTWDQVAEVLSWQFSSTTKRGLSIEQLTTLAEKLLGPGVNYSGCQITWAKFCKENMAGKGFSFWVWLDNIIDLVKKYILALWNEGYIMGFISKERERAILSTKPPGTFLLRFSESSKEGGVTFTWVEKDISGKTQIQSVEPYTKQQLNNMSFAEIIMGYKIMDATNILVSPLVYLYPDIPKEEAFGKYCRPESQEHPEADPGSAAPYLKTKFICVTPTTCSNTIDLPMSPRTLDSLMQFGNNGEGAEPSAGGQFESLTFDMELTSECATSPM
Sequence of XPO1 C528 (O14980) (O14980 whole entry): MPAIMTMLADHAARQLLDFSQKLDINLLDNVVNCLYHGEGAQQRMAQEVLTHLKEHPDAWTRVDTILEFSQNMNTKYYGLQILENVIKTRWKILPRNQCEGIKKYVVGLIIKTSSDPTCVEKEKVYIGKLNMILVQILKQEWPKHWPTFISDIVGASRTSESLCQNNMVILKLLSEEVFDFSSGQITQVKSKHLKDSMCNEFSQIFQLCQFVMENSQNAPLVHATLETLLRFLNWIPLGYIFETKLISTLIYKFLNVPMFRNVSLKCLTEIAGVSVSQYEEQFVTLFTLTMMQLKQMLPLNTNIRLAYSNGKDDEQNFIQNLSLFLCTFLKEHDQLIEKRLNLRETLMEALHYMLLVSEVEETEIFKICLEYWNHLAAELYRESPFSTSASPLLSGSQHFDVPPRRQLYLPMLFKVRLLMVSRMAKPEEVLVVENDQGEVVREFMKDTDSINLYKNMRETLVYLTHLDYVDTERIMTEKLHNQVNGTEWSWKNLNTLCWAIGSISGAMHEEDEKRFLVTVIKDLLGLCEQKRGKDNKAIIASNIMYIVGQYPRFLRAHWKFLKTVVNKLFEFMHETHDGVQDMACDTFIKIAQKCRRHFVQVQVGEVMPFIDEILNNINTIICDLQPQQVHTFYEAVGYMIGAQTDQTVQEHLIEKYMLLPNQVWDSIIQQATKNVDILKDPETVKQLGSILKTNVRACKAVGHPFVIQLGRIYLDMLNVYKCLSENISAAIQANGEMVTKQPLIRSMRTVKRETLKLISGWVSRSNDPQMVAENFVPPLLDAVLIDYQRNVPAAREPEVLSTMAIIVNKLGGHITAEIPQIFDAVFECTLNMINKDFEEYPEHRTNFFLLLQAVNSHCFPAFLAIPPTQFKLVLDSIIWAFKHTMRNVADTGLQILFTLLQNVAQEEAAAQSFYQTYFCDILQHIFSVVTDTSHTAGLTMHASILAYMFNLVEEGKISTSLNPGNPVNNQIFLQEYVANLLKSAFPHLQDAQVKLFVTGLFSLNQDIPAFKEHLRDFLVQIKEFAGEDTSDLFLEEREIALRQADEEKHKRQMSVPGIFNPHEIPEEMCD

With `C=CC(=O)Nc1cc(F)c(N2CCN(C(=O)OC(C)(C)C)CC2)c(F)c1` [compound 38] the “isoTOP-ABPP reactivity ratio, P40763_C259” value ([1]; 500 μm, in-vitro_ramos) was 1.5, the “isoTOP-ABPP reactivity ratio, Q15084_C55” value ([2]; 500 μm, in-vitro_ramos) was 1.3 and the “isoTOP-ABPP reactivity ratio, Q15084_C55” value ([2]; 500 μm, in-vitro_ramos_231) was 1.0. For the same compound, the “isoTOP-ABPP reactivity ratio, P48735_C308” value ([3]; 500 μm, in-vitro_ramos_231) was 1.2, the “isoTOP-ABPP reactivity ratio, O75874_C269” value ([4]; 500 μm, in-vitro_ramos_231) was 0.7 and the “isoTOP-ABPP reactivity ratio, O14980_C528” value ([5]; 500 μm, in-vitro_ramos_231) was 1.0. The “isoTOP-ABPP reactivity ratio, O00170_C122” value ([6]; in-vitro_ramos) was 1.5 and the “isoTOP-ABPP reactivity ratio, O00170_C122” value ([6]; in-vitro_ramos_231) was 1.5.

`O=C(CCl)Nc1cc(C(F)(F)F)cc(C(F)(F)F)c1` [compound 3] was tested, and the “R value (DMSO/fragment)” value ([1]; 500 μM, in vitro, MDA-MB-231) was 2.5, the “R value (DMSO/fragment)” value ([1]; 500 μM, invitro, ramos) was 2.9 and the “R value (DMSO/fragment)” value ([2]; 500 μM, in vitro, MDA-MB-231) was 17.9. The “R value (DMSO/fragment)” value ([2]; 500 μM, invitro, ramos) was 14.9, the “R value (DMSO/fragment)” value ([3]; 500 μM, in vitro, MDA-MB-231) was 2.2 and the “R value (DMSO/fragment)” value ([4]; 500 μM, in vitro, MDA-MB-231) was 20.0. The “R value (DMSO/fragment)” value ([4]; 500 μM, invitro, ramos) was 1.0, the “R value (DMSO/fragment)” value ([5]; 500 μM, in vitro, MDA-MB-231) was 20.0 and the “R value (DMSO/fragment)” value ([5]; 500 μM, invitro, ramos) was 20.0. For the same compound, the “R value (DMSO/fragment)” value ([6]; 500 μM, in vitro, MDA-MB-231) was 7.0 and the “R value (DMSO/fragment)” value ([6]; 500 μM, invitro, ramos) was 3.1.

`C=CC(=O)N(c1ccccc1)C1CCCCC1` [compound 46] was tested, and the “isoTOP-ABPP reactivity profile ratio, P40763_C259” value ([1]; 500 μm, in-vitro_ramos_231) was 1.2, the “isoTOP-ABPP reactivity profile ratio, Q15084_C55” value ([2]; 500 μm, in-vitro_ramos_231) was 0.8 and the “isoTOP-ABPP reactivity profile ratio, P48735_C308” value ([3]; 500 μm, in-vitro_ramos_231) was 0.2. The “isoTOP-ABPP reactivity profile ratio, O75874_C269” value ([4]; 500 μm, in-vitro_ramos_231) was 0.6 and the “isoTOP-ABPP reactivity profile ratio, O14980_C528” value ([5]; 500 μm, in-vitro_ramos_231) was 0.7.

`O=C(CCl)N1CCN(S(=O)(=O)c2ccccc2F)CC1` [compound 10] was tested, and the “isoTOP-ABPP ratio, P40763_C259” value ([1]; 500 μM, invitro, 231) was 3.4, the “isoTOP-ABPP ratio Q15084_C55” value ([2]; 500 μM, invitro, 231) was 20.0 and the “isoTOP-ABPP ratio, P48735_C308” value ([3]; 500 μM, invitro, 231) was 1.1. For the same compound, the “isoTOP-ABPP ratio, O75874_C269” value ([4]; 500 μM, invitro, 231) was 20.0, the “isoTOP-ABPP ratio O14980_C528” value ([5]; 500 μM, invitro, 231) was 0.8 and the “isoTOP-ABPP ratio, O00170_C122” value ([6]; 500 μM, invitro, ramos) was 1.7.

`O=C(CCl)N1CCN(CC(=O)N2CCOCC2)CC1` [compound 29] was tested, and the “isoTOP-ABPP ratio (reactivity profile), P40763_C259” value ([1]; 500 μm in-vitro ramos_231) was 1.5, the “isoTOP-ABPP ratio (reactivity profile), Q15084_C55” value ([2]; 500 μm in-vitro ramos) was 1.3 and the “isoTOP-ABPP ratio (reactivity profile), Q15084_C55” value ([2]; 500 μm in-vitro ramos_231) was 1.0. For the same compound, the “isoTOP-ABPP ratio (reactivity profile), P48735_C308” value ([3]; 500 μm in-vitro ramos_231) was 1.0, the “isoTOP-ABPP ratio (reactivity profile), O75874_C269” value ([4]; 500 μm in-vitro ramos_231) was 0.8 and the “isoTOP-ABPP ratio (reactivity profile), O14980_C528” value ([5]; 500 μm in-vitro ramos_231) was 1.0. The “isoTOP-ABPP ratio (reactivity profile), O00170_C122” value ([6]; 500 μm in-vitro ramos) was 1.3.

`C=CC(=O)N(Cc1cccnc1)c1cc(C(F)(F)F)cc(C(F)(F)F)c1` [compound 31] was tested, and the “isoTOP-ABPP reactivity ratio, P40763_C259” value ([1]; 500 μm, in-vitro_ramos_231) was 1.7, the “isoTOP-ABPP reactivity ratio, Q15084_C55” value ([2]; 500 μm, in-vitro_ramos) was 1.1 and the “isoTOP-ABPP reactivity ratio, Q15084_C55” value ([2]; 500 μm, in-vitro_ramos_231) was 1.2. The “isoTOP-ABPP reactivity ratio, P48735_C308” value ([3]; 500 μm, in-vitro_ramos) was 1.1, the “isoTOP-ABPP reactivity ratio, P48735_C308” value ([3]; 500 μm, in-vitro_ramos_231) was 1.3 and the “isoTOP-ABPP reactivity ratio, O75874_C269” value ([4]; 500 μm, in-vitro_ramos) was 0.7. For the same compound, the “isoTOP-ABPP reactivity ratio, O75874_C269” value ([4]; 500 μm, in-vitro_ramos_231) was 0.4, the “isoTOP-ABPP reactivity ratio, O14980_C528” value ([5]; 500 μm, in-vitro_ramos) was 3.2 and the “isoTOP-ABPP reactivity ratio, O14980_C528” value ([5]; 500 μm, in-vitro_ramos_231) was 5.2. The “isoTOP-ABPP reactivity ratio, O00170_C122” value ([6]; in-vitro_ramos) was 0.6.
